# Assay results reported in PMC5881420, “Identification, Expression Patterns, and Functional Characterization of Chemosensory Proteins in Dendroctonus armandi (Coleoptera: Curculionidae: Scolytinae)” (Frontiers in Physiology, 2018).
# How the values were obtained:
# DarmCSP2 = DarmCSP2 (Dendroctonus armandi, UniProt A0A3S7PYZ0); test: Fluorescence competitive binding assay (1-NPN displacement); conditions: for IC50: 2 μM DarmCSP2 and 2 μM 1-NPN titrated with ligand 2–16 μM, three independent measurements; for Ki: calculated from IC50: KD = [IC50]/(1+[1-NPN]/K1-NPN)
# Experimental: A Hitachi F-4500 fluorescence spectrophotometer was used to measure emission fluorescence spectra, in a right-angle configuration with a 1 cm light-path quartz cuvette. The slit width was […] for both excitation and emission. DarmCSPs were dissolved to 2 μM in 50 mM Tris-HCl buffer (pH = 7.4), whereas fluorescent probe N-phenyl-1-naphthylamine (1-NPN) and all semiochemicals were dissolved in methanol with a 1 mM stock solution. […] Excitation of 1-NPN occurred at 337 nm, with the emission spectra recorded from 360 to 500 nm. Corresponding fluorescence intensity values were plotted against free 1-NPN concentration to determine DarmCSP binding constants. Bound 1-NPN concentrations were assessed based on fluorescence intensity, assuming DarmCSPs were 100% active and protein: ligand = 1:1 at saturation. The dissociation-constants curve was linearized with Scatchard plots in Prism 6.0 (GraphPad Software, CA, USA).
# Ligand affinity was measured with competitive binding assays. Fourteen compounds were selected based on previous reports (Zhang et al., [2010]; Xie and Lv, [2012]; Chen et al., [2015]; Zhao et al., [2017a],[b]), including 10 host volatiles and four D. armandi pheromones (Table 2). A mixture of 2 μM DarmCSP and 2 μM 1-NPN was titrated with each ligand to final concentrations of 2–16 μM. Corresponding fluorescence intensities were recorded from three independent measurements. Dissociation constants of competitive ligands were calculated according to IC50 values, using the equation: KD = [IC50]/(1+[1-NPN]/K1−NPN), where IC50 is competitive-ligand concentration at half the initial fluorescence of 1-NPN, 1-NPN is the concentration of free 1-NPN, and K1−NPN is the dissociation constant of DarmCSP with 1-NPN.
# D. armandi antennae = test: Electroantennogram (EAG) of antennae after RNAi of DarmCSP2; design: species or system Dendroctonus armandi; conditions: 48 h post-injection; semiochemical 10 μg/μL in hexane; compared with non-injected and water-injected controls; P < 0.05
# Experimental: Freshly and synchronously emerged adults were anesthetized on glass petri dishes placed for 30 min in an ice bath, before injection with 0.2 μL dsCSP2 into the hemocoel at the suture under the hindleg. Injections used Hamilton Microliter™ syringes (700 series, RN) with 32G sharp-point needles (Hamilton, Switzerland). Controls were either injected with 0.2 μL DEPC-treated water or not injected. Subjects were then transferred onto wet filter paper placed in clear glass petri dishes for continuous culture (at 20 ± 1°C, 50% humidity). Three males and three females were removed at different time intervals (12, 24, and 48 h) from each treatment group for storage at −80°C until qRT-PCR analysis. Three replicates were performed per treatment group (non-injected, water-injected, dsCSP2-injected). RNA isolation, cDNA synthesis, and qRT-PCR procedure followed methods described above (“RNA isolation and cDNA synthesis” and “Expression patterns of CSP genes across different life stages and tissues”).
# Electroantennograms (EAG) were used to detect RNAi efficiency of dsCSP2 and determine DarmCSP2 function in binding semiochemicals. Methods were modified from a previous study (Zhang et al., [2010]). Subject beetles were chosen based on post-RNAi qRT-PCR and anesthetized in an ice bath. Antennae were carefully excised at their base with a scalpel and immediately connected between two electrode holders using Spectra 360 electrode gel.
# Semiochemicals were selected based on the results of fluorescence binding assays and dissolved to 10 μg/μL in hexane. Hexane alone acted as a blank control and 1 μg/μL 1-hexanol was used as a standard to normalize all EAG recordings (Zhang et al., [2010]). Semiochemical solutions (20 μL) were loaded onto filter paper strips (5 × 30 mm) and then transferred into a Pasteur pipette. The pipette tip was then inserted into a small hole in the wall of a steel tube (15 mm diameter × 15 cm length). The tube was connected to an air stimulus controller (CS-05b Syntech, the Netherlands) for constant humidified airflow delivery at a rate of 40 mL/min. The open end of the tube was positioned 1 cm before an antenna affixed between two electrode holders.
# To stimulate the antenna, semiochemical-containing air was introduced through the pipette into the main air flow at a rate of 20 mL/min for 0.2 s. Each stimulus was separated by at least a 1 min interval to ensure complete antenna recovery. Signals were recorded using an IDAC-2 unit plus amplifier and Syntech EAG 2000 (Syntech, Netherlands). The control and standard were tested before and after every semiochemical solution. Antennae from12 individuals (six males and six females) were tested, with three replicates per antenna. To calculate EAG values, mean responses of the solvent control before and after exposure were subtracted from mean sample responses, then converted to a percentage of the accompanying standard (Zhang et al., [2010]).
# DarmCSP1 = test: Fluorescence binding assay of 1-NPN with DarmCSP1; design: species or system Dendroctonus armandi; conditions: DarmCSP1, 2 μM protein titrated with 1-NPN
# Text: (§1) To better characterize DarmCSP function, three antennae-preferential genes (DarmCSP 1–3) were chosen for expression in bacteria. Signal peptides were removed to generate properly folded proteins. PCR products encoding mature proteins were amplified using gene-specific primers (Table S1), cloned into pGEM-T easy vectors (Promega, Madison, USA), then excised and cloned into the bacterial expression vector pET32a(+) (Novagen, Madison, WI), between BamHI and XhoI restriction sites. Successful cloning was verified through PCR and sequencing. Plasmids containing the correct insert were extracted and transformed into E. coli BL21 (DE3) competent cells. Positive clones were incubated at 37°C until absorbance = 0.6 at OD 600, and protein expression was induced with IPTG (isopropyl-β-D-1-thiogalactopyranoside) treatment (28°C for 6 h) to a final concentration of 0.5 mM. […]
# (§2) Recombinant proteins were purified with N-termini His tagged from the supernatant using a Ni-NTA-Sefinose Column (Sangon, Shanghai, China), and placed in a buffer (25 mM Tris-HCl, 50 mM NaCl, and 2 mM CaCl2, pH 7.6) for dialysis. To avoid confounding effects in fluorescence binding assays, His-tags were excised using Recombinant Enterokinase with His-tag (rEK) (Sangong, Shanghai, China), and the resultant complex was cleared through a Ni-NTA-Sefinose Column. […]
# DarmCSP3 = test: Fluorescence binding assay of 1-NPN with DarmCSP3; design: species or system Dendroctonus armandi; conditions: DarmCSP3, 2 μM protein titrated with 1-NPN
# Text: as §1, §2
# Sequence of DarmCSP2 (A0A3S7PYZ0 entry or part of it): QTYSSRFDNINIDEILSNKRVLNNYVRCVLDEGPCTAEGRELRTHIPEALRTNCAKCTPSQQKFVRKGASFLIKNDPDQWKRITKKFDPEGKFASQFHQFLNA
Compound,IC50 (DarmCSP2),Ki (DarmCSP2),Effect of dsCSP2 injection on antennae EAG activity in response to the semiochemical (D. armandi antennae),Affinity to 1-NPN (DarmCSP1),Affinity to 1-NPN (DarmCSP3)
CC[C@@H]1O[C@]2(C)CCC[C@H]1O2 (racemic) [(±)-exo-Brevicomin],14.48 ± 0.11 µM,9.34 ± 0.07 µM,–,–,–
CC1=C[C@H](O)[C@@H]2C[C@H]1C2(C)C (relative stereo) [(-)-trans-Verbenol],4.33 ± 0.1 µM,2.8 ± 0.07 µM,–,–,–
(+)-α-Pinene,3.6 ± 0.03 µM,2.33 ± 0.02 µM,significantly reduced,–,–
(+)-β-Pinene,5.9 ± 1.31 µM,3.8 ± 0.84 µM,significantly reduced,–,–
(±)-Frontalin,26.2 ± 1.94 µM,16.9 ± 1.26 µM,–,–,–
C=C1[C@H]2CC[C@H](C2)C1(C)C [(+)-Camphene],–,–,significantly reduced,–,–
(–)-β-Pinene,5.93 ± 0.17 µM,3.83 ± 0.11 µM,significantly reduced,–,–
CC1=CC[C@H](C(C)C)C=C1 [(R)-(-)-a-Phellandrene],8.77 ± 0.24 µM,5.66 ± 0.16 µM,–,–,–
"CC1=CCC2C(C1)C2(C)C (single isomer, unassigned; (+)) [(+)-3-Carene]",3.05 ± 0.71 µM,1.97 ± 0.46 µM,significantly reduced,–,–
C=CC(=C)CCC=C(C)C [Myrcene],–,–,significantly reduced,–,–
(S)-(-)-Limonene,5.51 ± 0.42 µM,3.41 ± 0.04 µM,–,–,–
CC1=CCC2CC1C2(C)C (stereo not drawn) [(–)-α-Pinene],2.53 ± 0.11 µM,1.64 ± 0.08 µM,–,–,–
C=C(C)[C@H]1CC=C(C)CC1 [(R)-(+)-Limonene],6.36 ± 0.25 µM,4.1 ± 0.16 µM,–,–,–
"c1ccc(Nc2cccc3ccccc23)cc1 [1-NPN, N-phenyl-1-naphthylamine]",–,–,–,no obvious affinity,no obvious affinity
